The values below are quoted from earlier work in patent US20200188405A1, “COMPOSITION FOR TREATING OCULAR DISORDERS SUCH AS MACULAR DEGENERATION, RETINOPATHY AND GLAUCOMA” (RHEOSTASIS, LLC, priority 2017, published 2020).

The data set deals with β (beta) blocker. The conditions noted are these: ocular applications.

Structures are written as SMILES. Where a name gives a salt, the structure may show the parent alone.

Take `CC(C)(C)NC[C@H](O)COc1nsnc1N1CCOCC1` [Timolol Maleate]: the “potency as β blocker relative to propranolol” value is recorded as 5-10 times.
